One data set concerns HCC1954 cells. As to the kind of experiment: In vitro cell killing assay of payloads (cell proliferation, Cell-Titer-Glo). In kind it is cell-based. Conditions: Homo sapiens, 120 h, HCC1954 cells, Cell-Titer-Glo after five days, read-out: In vitro cell killing (IC50 (nM)) HCC1954.
The subject of another data set is MDA-MB231 clone 16 cells. Described as above. The class given is cell-based. Conditions: Homo sapiens, 120 h; MDA-MB-231 clone 16 cells; Cell-Titer-Glo after five days.
A further data set concerns MDA-MB231 clone 40 cells. The description is as above. In kind it is cell-based. Conditions: Homo sapiens, 120 h; MDA-MB-231 clone 40 cells; Cell-Titer-Glo after five days.
The subject of a further data set is Jurkat cells. The description is as above. The class given is cell-based. Conditions: Homo sapiens, 120 h, Cell-Titer-Glo after five days.
Another data set concerns H526 cells. The description is as above. In kind it is cell-based. Conditions: Homo sapiens, 120 h, NCI-H526 cells, Cell-Titer-Glo after five days, read-out: In vitro cell killing (IC50 (nM)) NCI-H526.
Another data set concerns KU812 cells. Described as above. The class given is cell-based. Conditions: Homo sapiens, 120 h, Cell-Titer-Glo after five days.
The test system of another data set is JimT1 cells. The description is as above. The class given is cell-based. The note with it: Homo sapiens, JIMT-1, 120 h, JimT1 cells, Cell-Titer-Glo after five days, read-out: In vitro cell killing (IC50 (nM)) JimT1.
The test system of another data set is CMK11-5 cells. Described as above. The class given is cell-based. The note with it: Homo sapiens, 120 h; CMK-11-5 cells; Cell-Titer-Glo after five days.
The conditions of data set [1]: acidic condition.
The subject of another data set is A375 cells. The experiment in a line: In vitro cell killing assay of payloads (cell proliferation, Cell-Titer-Glo). The class given is cell-based. The note with it: Homo sapiens, A-375, 120 h, Cell-Titer-Glo after five days. The method, then:
(§1) For evaluation of the cell killing potency of the cytotoxic peptides of Formula (I) in vitro, cell proliferation assays were performed in parallel with 8 cell lines: MDA-MB231 clone 16, clone 40, JimT1, HCC1954, H526, KU812, CMK11-5 cells and Jurkat cells. In addition, in vitro, cell proliferation assays were performed using 3 other cell lines: A375, SKBR3 and NCI-N87. All the cell lines are described in more detail in Example 106 and were also used to assess the in vitro potency of immunoconjugates of the invention. The cell proliferation assays were conducted with Cell-Titer-Glo™ (Promega) five days after cells were incubated with various concentrations of ADCs (Riss et al., (2004) Assay Drug Dev Technol. 2:51-62).

Another data set has as its system SKBR3 cells. The data set is described as above. In kind it is cell-based. The note with it: Homo sapiens, SK-BR-3, 120 h, Cell-Titer-Glo after five days. The method, then:
as §1

A further data set has as its system NCI-N87 cells. The data set is described as above. The class given is cell-based. The note with it: Homo sapiens, 120 h, Cell-Titer-Glo after five days. The protocol:
as §1

Where two headings read alike, the source gives them in different places. Non-standard residues stand in square brackets, D forms with d. Residues, ends and D or L forms follow the SMILES beside them. *: point of attachment. Dolaproine = CO[C@@H]([C@@H]1CCCN1)[C@@H](C)C(=O)O; Dil = CC[C@H](C)[C@H](NC)[C@@H](CC(=O)O)OC; X2 = CN1[C@@H]2CC[C@@H](C2)[C@H]1C(=O)*; Phe(ol) = N[C@H](CO)Cc1ccccc1

One may read the IC50 as the midpoint of a concentration-inhibition curve.

As for `CC[C@H](C)[C@@H]([C@@H](CC(=O)N1CCC[C@H]1[C@H](OC)[C@@H](C)C(=O)N[C@H](C)[C@@H](O)c1ccccc1)OC)N(C)C(=O)[C@@H](NC(=O)[C@H]1N[C@@H]2CC[C@H]1C2)C(C)C` [Compound 3, (1R,3S,4S)-N-((S)-1-(((3R,4S,5S)-1-((S)-2-((1R,2R)-3-(((1S,2R)-1-Hydroxy-1-phenylpropan-2-yl)amino)-1-methoxy-2-methyl-3-oxopropyl)pyrrolidin-1-yl)-3-methoxy-5-methyl-1-oxoheptan-4-yl)(methyl)amino)-3-methyl-1-oxobutan-2-yl)-2-azabicyclo[2.2.1]heptane-3-carboxamide], the concentration for half-maximal inhibition (IC50) with HCC1954 cells (Table 2a) turned out to be 10.8 nM; with MDA-MB231 clone 16 cells, 12.7 nM; with MDA-MB231 clone 40 cells, 23.9 nM; in the data set with Jurkat cells it was 3.01 nM; in the data set on H526 cells (Table 2a), 22 nM; in the data set with KU812 cells, 6.78 nM. For the same compound, the values for the concentration for half-maximal inhibition (IC50) in the data set with JimT1 cells (Table 2a) and in the data set on CMK11-5 cells were 42.1 nM and 14.7 nM, respectively.
Turning to `CCCCOP(=O)(O)[C@H](Cc1ccccc1)NC(=O)[C@H](C)[C@@H](OC)[C@@H]1CCCN1C(=O)C[C@@H](OC)[C@H]([C@@H](C)CC)N(C)C(=O)[C@@H](NC(=O)[C@@H]1[C@H]2CC[C@H](C2)N1C(=O)CCCCCN1C(=O)C=CC1=O)C(C)C` [Compound 29, Butyl hydrogen ((R)-1-((2R,3R)-3-((S)-1-((3R,4S,5S)-4-((S)-2-((1R,3S,4S)-2-(6-(2,5-dioxo-2,5-dihydro-1H-pyrrol-1-yl)hexanoyl)-2-azabicyclo[2.2.1]heptane-3-carboxamido)-N,3-dimethylbutanamido)-3-methoxy-5-methylheptanoyl)pyrrolidin-2-yl)-3-methoxy-2-methylpropanamido)-2-phenylethyl)phosphonate], in data set [1], the “hydrolysis of the ester” value is recorded as “prone to hydrolysis in acidic condition”.
With `CC[C@H](C)[C@@H]([C@@H](CC(=O)N1CCC[C@H]1[C@H](OC)[C@@H](C)C(=O)N[C@@H](Cc1ccccc1)C(=O)NS(=O)(=O)CCCN=[N+]=[N-])OC)N(C)C(=O)[C@@H](NC(=O)[C@@H]1[C@H]2CC[C@H](C2)N1C)C(C)C` [Compound 46, (1R,3S,4S)-N-((S)-1-(((3R,4S,5S)-1-((S)-2-((1R,2R)-3-(((S)-N-1-(3-Azidopropylsulfonamido)-1-oxo-3-phenylpropan-2-yl)amino)-1-methoxy-2-methyl-3-oxopropyl)pyrrolidin-1-yl)-3-methoxy-5-methyl-1-oxoheptan-4-yl)(methyl)amino)-3-methyl-1-oxobutan-2-yl)-2-methyl-2-azabicyclo[2.2.1]heptane-3-carboxamide], the half-inhibitory concentration (IC50) in the data set on HCC1954 cells (Table 2a) worked out at 2.3 nM; in the data set on MDA-MB231 clone 16 cells, 8.1 nM; in the data set with MDA-MB231 clone 40 cells, 11.7 nM; with Jurkat cells, 6.1 nM; in the data set on H526 cells (Table 2a) it was 29.5 nM; in the data set on KU812 cells, 8.4 nM. The figures for the half-maximal inhibitory concentration (IC50) with JimT1 cells (Table 2a) and in the data set with CMK11-5 cells were 14.2 nM and 10.4 nM, respectively.
Consider `CC[C@H](C)[C@@H]([C@@H](CC(=O)N1CCC[C@H]1[C@H](OC)[C@@H](C)C(=O)N[C@H](CO)Cc1ccccc1)OC)N(C)C(=O)[C@@H](NC(=O)[C@@H]1[C@H]2CC[C@H](C2)N1C)C(C)C` [Compound 51, (1R,3S,4S)-N-((S)-1-(((3R,4S,5S)-1-((S)-2-((1R,2R)-3-(((S)-1-Hydroxy-3-phenylpropan-2-yl)amino)-1-methoxy-2-methyl-3-oxopropyl)pyrrolidin-1-yl)-3-methoxy-5-methyl-1-oxoheptan-4-yl)(methyl)amino)-3-methyl-1-oxobutan-2-yl)-2-methyl-2-azabicyclo[2.2.1]heptane-3-carboxamide] (X2-V[Dil][Dolaproine][Phe(ol)]), for which the IC50 was 0.028 nM in the data set on HCC1954 cells (Table 2b); 0.154 nM with A375 cells; 0.035 nM in the data set on SKBR3 cells; 0.053 nM in the data set on NCI-N87 cells; 0.184 nM with H526 cells (Table 2b); 0.081 nM with JimT1 cells (Table 2b).
`CC[C@H](C)[C@@H]([C@@H](CC(=O)N1CCC[C@H]1[C@H](OC)[C@@H](C)C(=O)N[C@@H](Cc1ccccc1)CS(N)(=O)=O)OC)N(C)C(=O)[C@@H](NC(=O)[C@@H]1[C@H]2CC[C@H](C2)N1C)C(C)C` [Compound 55, (1R,3S,4S)-N-((S)-1-(((3R,4S,5S)-3-methoxy-1-((S)-2-((1R,2R)-1-methoxy-2-methyl-3-oxo-3-(((S)-1-phenyl-3-sulfamoylpropan-2-yl)amino)propyl)pyrrolidin-1-yl)-5-methyl-1-oxoheptan-4-yl)(methyl)amino)-3-methyl-1-oxobutan-2-yl)-2-methyl-2-azabicyclo[2.2.1]heptane-3-carboxamide]: the half-maximal inhibitory concentration (IC50) with HCC1954 cells (Table 2b) was found to be 0.124 nM; in the data set with A375 cells it was 2.75 nM; in the data set on SKBR3 cells, 0.21 nM; in the data set with NCI-N87 cells it was 0.643 nM; in the data set with H526 cells (Table 2b), 0.364 nM; with JimT1 cells (Table 2b), 0.751 nM.

The record behind these values is US9988420B2, “Cytotoxic peptides and conjugates thereof” (priority 2013, dated 2018).
